Measurements: patent US20260158014A1, “METHODS OF ADMINISTERING VOXELOTOR” (Global Blood Therapeutics, Inc., priority 2021, published 2026)
“Also recorded” adds a separate entry of the source.

Key:
MATE2-K = MATE2-K (Homo sapiens, UniProt Q86VL8); experiment: In vitro transporter study; assay type: in vitro ADME
BCRP = BCRP (Homo sapiens, UniProt Q9UNQ0); experiment: In vitro transporter study; assay type: in vitro ADME
[1] = tested on: patients with SCD aged 4 to 11 years; experiment: Open-label Phase 2 trial (part C): Hb response and hemolysis markers; assay type: in vivo, human
From the text: Patients and treatment: Patients with SCD were screened at 15 study sites in the United States, Lebanon, and the United Kingdom. Key inclusion criteria included patients with SCD (homozygous sickle cell disease [HbSS] or HbSβ^0 genotypes), aged 4 to 11 years, and with hemoglobin (Hb) concentrations ≤10.5 g/dL at baseline. Concomitant hydroxyurea was allowed if the dose was stable for ≥3 months at enrollment, with no anticipated need for dose adjustment during the study. There was no eligibility requirement regarding prior VOCs. Patients who were receiving chronic red blood cell transfusion therapy, had received a transfusion in the past 30 days, or had been hospitalized for a VOC, acute chest syndrome, splenic sequestration crisis, or dactylitis within 14 days before providing informed consent were excluded.
All patients received dispersible voxelotor tablets. Patients aged 4 to 11 years received once-daily voxelotor weight-based-dosing (Table 1).
Statistical analyses: All efficacy and safety assessments were summarized with descriptive statistics. Population PK analyses using nonlinear mixed-effects modeling were performed to characterize voxelotor PK in plasma and whole blood.
Patients 4 to <12 years received tablets for oral suspension based on body weight at baseline. OXBRYTA doses of 600 mg, 900 mg, or 1,500 mg once daily were administered to patients weighing 10 kg to <20 kg, 20 kg to <40 kg, or ≥40 kg, respectively. Patients 12 to <17 years received OXBRYTA 1,500 mg once daily.
Patients were included if their baseline hemoglobin (Hb) was <10.5 g/dL. Eligible patients on stable doses of hydroxyurea for at least 90 days were allowed to continue hydroxyurea therapy throughout the study.
Efficacy was based on Hb response rate, which is defined as a Hb increase of >1 g/dL from baseline to Week 24.

CYP2C19 = target: T1, CYP2C19 (Homo sapiens, UniProt P33261); experiment: Clinical probe-substrate DDI study: omeprazole; assay type: in vivo
T1 construct: endogenous in cells; host or cells: healthy human subjects (in vivo)
Experimental: (§1) The effect of voxelotor on the pharmacokinetics (PK) of a single dose of caffeine, warfarin sodium, omeprazole, and midazolam hydrochloride, which are probe substrates for cytochrome P450 (CYP)1A2, CYP2C9, CYP2C19, and CYP3A4, respectively, were studied in healthy subjects. During Period 1, subjects received a single dose of caffeine 100 mg, warfarin sodium 10 mg+vitamin K 10 mg, omeprazole 20 mg, and midazolam hydrochloride 2 mg on Day 1. During Period 2, subjects received voxelotor 900 mg QD on Days 1 and 2 followed by 600 mg QD on Day 3, a single dose of caffeine 100 mg, warfarin sodium 10 mg+vitamin K 10 mg, omeprazole 20 mg, and midazolam hydrochloride 2 mg on Day 4, and voxelotor 600 mg QD on Days 4 through 7.
(§2) Whole blood and plasma concentrations of voxelotor and plasma concentrations of caffeine, paraxanthine, S-warfarin, omeprazole, 5-hydroxyomeprazole, midazolam, and 1-hydroxymidazolam were determined using validated assays.

[2] = Probe-substrate DDI study: voxelotor exposure and safety in healthy subjects; assay type: in vivo, human
Experimental: as §1, §2

[3] = PK in subjects with renal impairment; assay type: in vivo, human
Experimental: Following a single 900 mg dose of voxelotor, whole blood exposures in subjects with severe renal impairment (eGFR <30 mL/min/1.73 m^2) were 25% lower compared to healthy controls.

QT interval = experiment: Cardiac electrophysiology (QT interval); assay type: in vivo; conditions: plasma concentrations approximately 2-fold above therapeutic concentrations
rat = experiment: Rat micronucleus assay; conditions: in vivo
hemoglobin S (HbS) = hemoglobin S (HbS) (Homo sapiens, UniProt P68871+P69905, E7V); experiment: HbS binding and polymerization inhibition
patients treated = experiment: Hypersensitivity reactions in treated patients; conditions: human, in vivo
RasH2 transgenic mice = experiment: 26-week carcinogenicity study; assay type: in vivo, mouse; conditions: 26 weeks; oral 30, 150, or 500 mg/kg/day
OCT2 = OCT2 (Homo sapiens, UniProt O15244); experiment: In vitro transporter study; assay type: in vitro ADME
[4] = Clinical DDI: acid reducing agent omeprazole on voxelotor; conditions: in vivo
CYP3A4 = CYP3A4 (Homo sapiens, UniProt P08684); experiment: Clinical DDI: strong CYP3A4 inhibitor itraconazole on voxelotor; assay type: in vivo; design: host or cells: Simcyp PBPK simulation; conditions: healthy subjects
pregnant rats = experiment: Embryo-fetal development study in rats; assay type: in vivo, rat; conditions: oral 15, 50, 250 mg/kg/day, gestation days 7 through 17
Experimental: In embryo-fetal development studies, voxelotor was administered orally to pregnant rats at 15, 50, and 250 mg/kg/day (gestation days 7 through 17) and rabbits at 25, 75, and 150 mg/kg/day (gestation days 7 through 19) through organogenesis.

OATP1B3 = OATP1B3 (Homo sapiens, UniProt Q9NPD5); experiment: In vitro transporter study; assay type: in vitro ADME
[5] = 4 to 11 years, weight-based dosing

Structure (SMILES): CC(C)n1nccc1-c1ncccc1COc1cccc(O)c1C=O [voxelotor, 2-hydroxy-6-((2-(1-isopropyl-1H-pyrazol-5-yl)pyridin-3-yl)methoxy)benzaldehyde]
- MATE2-K inhibition (MATE2-K): not an inhibitor
- BCRP inhibition (BCRP): not an inhibitor
- substrate of BCRP (BCRP): not a substrate
- mean change in Hb from baseline at week 24 ([1]; 4 to 11 years, once-daily weight-based 600/900/1500 mg dispersible tablets, n=34): 1.0 g/dL
- patients with Hb response (>1.0 g/dL increase from baseline) at week 2 [1, 5]: 54.5%
- patients with an increase in Hb of any magnitude from baseline at week 24 [1, 5]: 82%
- patients with >2.0 g/dL increase in Hb from baseline at week 24 ([1]; 4 to 11 years, weight-based dosing, n=7/34): 21%
- patients with >1.5 g/dL increase in Hb from baseline at week 24 ([1]; 4 to 11 years, weight-based dosing, n=12/34): 35%
- patients with Hb response (increase >1.0 g/dL from baseline) at week 24 ([1]; 4 to 11 years, weight-based dosing, n=34): 47.1%
- Hb response rate (Hb increase >1 g/dL from baseline to Week 24) ([1]; patients 4 to <12 years who took at least one dose (16/45)): 36%
- mean percent change from baseline in indirect bilirubin ([1]; week 24, n=28): −38.6%
- mean percent change from baseline in percent reticulocyte count ([1]; week 24, n=31): −3.25%
- mean percent change from baseline in lactate dehydrogenase ([1]; week 24, n=32): −2.6%
- effect of voxelotor on PK of CYP2C19 probe substrate omeprazole (CYP2C19; healthy subjects, voxelotor 900/600 mg QD, omeprazole 20 mg): no clinically meaningful effect
- CYP2C19 inhibition in vivo (CYP2C19; human, in vivo): not
- safety and tolerability alone and with probe substrates [2]: safe and well tolerated
- effect of renal function on excretion ([3]; human, in vivo): no clinically significant effect
- unbound plasma concentrations, severe renal impairment vs healthy controls ([3]; single 900 mg dose): comparable
- whole blood exposures lower in severe renal impairment vs healthy controls ([3]; single 900 mg dose, eGFR <30 mL/min/1.73 m^2): 25%
- QT interval prolongation (QT interval): does not prolong QT interval to any clinically relevant extent
- genotoxicity, rat micronucleus assay (rat): not genotoxic
- HbS polymerization (hemoglobin S (HbS)): dose-dependent inhibition
- serious hypersensitivity reactions, patients treated (patients treated): < 1%
- carcinogenicity (RasH2 transgenic mice): not carcinogenic
- OCT2 inhibition (OCT2): not an inhibitor
- effect of omeprazole (proton pump inhibitor) on voxelotor exposure [4]: did not alter voxelotor exposure
- increase of voxelotor AUC with itraconazole (CYP3A4): 11%
- developmental outcome (pregnant rats): no adverse developmental effects; also recorded: no evidence of adverse developmental outcomes
- OATP1B3 inhibition (OATP1B3): not an inhibitor
- substrate of OATP1B3 (OATP1B3): not a substrate
